ChEMBL document CHEMBL1139857, “Target-based approach to inhibitors of histone arginine methyltransferases” (J Med Chem, 2007)
Activity calls are given as the source filed them. The rule behind the calls is not given here.

Assays:
[1] = target: RmtA (Emericella nidulans) (UniProt Q5VLE3); assay: Inhibition of Aspergillus nidulans RmtA at 10 uM by TRF assay
[2] = target: RmtA (Emericella nidulans) (UniProt Q5VLE3); assay: Inhibition of Aspergillus nidulans RmtA at 2 uM by TRF assay
RmtA = RmtA (Emericella nidulans, UniProt Q5VLE3); assay: Inhibition of Aspergillus nidulans RmtA by TRF assay
Chain of RmtA (Q5VLE3 whole entry): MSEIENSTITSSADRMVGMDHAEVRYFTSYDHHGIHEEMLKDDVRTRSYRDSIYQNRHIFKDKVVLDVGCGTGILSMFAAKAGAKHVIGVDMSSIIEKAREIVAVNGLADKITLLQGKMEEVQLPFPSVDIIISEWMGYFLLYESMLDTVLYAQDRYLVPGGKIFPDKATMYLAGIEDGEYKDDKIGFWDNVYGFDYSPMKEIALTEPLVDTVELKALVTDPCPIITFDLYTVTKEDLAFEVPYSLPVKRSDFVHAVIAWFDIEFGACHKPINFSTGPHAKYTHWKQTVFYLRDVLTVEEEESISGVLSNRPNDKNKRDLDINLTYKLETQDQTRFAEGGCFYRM

[3] = target: T1, Estrogen receptor (Homo sapiens) (UniProt P03372); assay: Inhibition of estradiol-mediated ERalpha activation in MCF-7-2a cells at 150 uM; assay type: cell-based; set-up: scale not given: the % may be the effect or the level left
T1 sequence (whole entry): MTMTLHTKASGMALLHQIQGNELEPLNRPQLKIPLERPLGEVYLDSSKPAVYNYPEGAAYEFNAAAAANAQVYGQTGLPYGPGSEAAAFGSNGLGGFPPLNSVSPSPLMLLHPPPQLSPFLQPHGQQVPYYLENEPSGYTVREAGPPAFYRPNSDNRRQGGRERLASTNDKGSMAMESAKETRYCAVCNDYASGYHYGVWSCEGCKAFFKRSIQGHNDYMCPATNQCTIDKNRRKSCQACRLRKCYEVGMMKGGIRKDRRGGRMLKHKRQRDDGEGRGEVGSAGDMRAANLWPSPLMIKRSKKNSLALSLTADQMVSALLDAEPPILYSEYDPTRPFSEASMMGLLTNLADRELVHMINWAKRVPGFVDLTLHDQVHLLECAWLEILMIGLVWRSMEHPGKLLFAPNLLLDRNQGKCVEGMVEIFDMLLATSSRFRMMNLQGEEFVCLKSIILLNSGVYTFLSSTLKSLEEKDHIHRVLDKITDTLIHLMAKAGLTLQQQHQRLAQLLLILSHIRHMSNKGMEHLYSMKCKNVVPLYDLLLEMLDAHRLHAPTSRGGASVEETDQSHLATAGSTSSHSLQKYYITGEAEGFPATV

[4] = target: T1, Estrogen receptor (Homo sapiens); assay: Inhibition of ERalpha activation in MCF-7-2a cells by reporter gene assay; assay type: cell-based
[5] = target: T2, Androgen receptor (Homo sapiens) (UniProt P10275); assay: Inhibition of androgen receptor activation in MCF-7-2a cells by reporter gene assay; assay type: cell-based
T2 sequence (whole entry): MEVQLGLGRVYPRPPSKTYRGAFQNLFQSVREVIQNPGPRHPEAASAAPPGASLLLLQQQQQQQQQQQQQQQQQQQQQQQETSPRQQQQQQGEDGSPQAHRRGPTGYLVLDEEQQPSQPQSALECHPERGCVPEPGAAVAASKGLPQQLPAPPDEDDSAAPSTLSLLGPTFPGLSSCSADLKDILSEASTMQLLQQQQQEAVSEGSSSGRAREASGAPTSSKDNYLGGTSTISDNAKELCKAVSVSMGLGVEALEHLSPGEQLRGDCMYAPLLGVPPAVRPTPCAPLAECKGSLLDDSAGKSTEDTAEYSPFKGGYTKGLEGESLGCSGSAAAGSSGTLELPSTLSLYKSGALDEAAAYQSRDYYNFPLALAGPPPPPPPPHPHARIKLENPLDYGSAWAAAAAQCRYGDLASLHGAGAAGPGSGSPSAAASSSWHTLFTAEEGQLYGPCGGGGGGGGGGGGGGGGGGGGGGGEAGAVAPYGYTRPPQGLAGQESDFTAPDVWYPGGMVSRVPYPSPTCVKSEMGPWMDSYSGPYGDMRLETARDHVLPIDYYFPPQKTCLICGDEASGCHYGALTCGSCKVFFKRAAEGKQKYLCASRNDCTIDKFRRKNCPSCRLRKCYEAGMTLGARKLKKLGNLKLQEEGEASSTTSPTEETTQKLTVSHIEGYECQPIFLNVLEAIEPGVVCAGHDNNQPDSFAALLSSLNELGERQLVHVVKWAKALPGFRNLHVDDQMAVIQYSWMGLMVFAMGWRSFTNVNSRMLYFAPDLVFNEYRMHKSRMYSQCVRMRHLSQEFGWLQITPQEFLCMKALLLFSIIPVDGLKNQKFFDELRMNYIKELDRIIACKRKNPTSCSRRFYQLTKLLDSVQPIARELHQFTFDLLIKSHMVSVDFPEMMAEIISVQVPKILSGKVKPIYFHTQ

Chain of RmtA (Emericella nidulans) (Q5VLE3 as listed by the source): as the sequence (Q5VLE3 whole entry) above

| inhibition [1] [%] | inhibition [2] [%] | Structure (SMILES) | IC50 (RmtA) [µM] | also measured |
| --- | --- | --- | --- | --- |
| 68.3 |  | CC(C)(CN)SCc1ccccc1 |  | Activity [2]: inactive |
|  |  | N=C(N)c1ccc(/C=C/c2ccc(C(=N)N)cc2)cc1 [STILBAMIDINE] | 29.9 | Activity [3]: 75% |
| 77 | 26.1 | Cc1ccc(CNc2ncnc3[nH]cnc23)cc1 |  |  |
| 64.7 | 34.9 | c1nc(NCCCc2c[nH]cn2)c2nc[nH]c2n1 |  |  |
|  |  | O=C(Nc1ccc2c(O)cc(S(=O)(=O)O)cc2c1)Nc1ccc2c(O)cc(S(=O)(=O)O)cc2c1 | 33.8 | Activity [4]: Active; Activity [5]: Active; Activity [3]: Active |
| 75.1 | 15.6 | N=C(N)Nc1nc2cc([N+](=O)[O-])ccc2[nH]1 |  |  |
|  |  | Nc1ccc(S(=O)(=O)c2ccc(NCN3C(=O)NC(=O)C(=O)C3=O)cc2)cc1 [ALLANTODAPSONE] | 8.3 |  |
| 83.9 | 18.3 | N=C(N)SCc1cc(Cl)cc(Cl)c1O |  |  |
